According to patent US10544151B2, “Compounds and uses thereof” (Kala Pharmaceuticals, Inc., priority 2013, dated 2020):

Experiments:
[1] = Physical and chemical stability of I-2 solutions at room temperature; type: physicochemical; details: F127 (0.5%), 20 mM Tris (pH 8)
Description: Solutions of I-2 were formulated with F127 or Tween 80, and under a range of pH values. Briefly, I-2 was first completely solubilized using an acidic solution (0.1 N HCl) at a high concentration of ˜5% (wiv). The final formulation was diluted to a solution consisting of 0.5% (wiv) I-2 into buffered solution containing F127 or Tween 80 as described in Table 5. Following dilution, the pH of the formulations was measured using pH indicator strips (PEHANON) and confirmed to be within expected range (±0.5 units of target pH).
Physical and chemical stability of the solutions at room temperature (20-25° C.) were assessed after 7-10 days (tfinal). Physical instability in a solution can manifest as the precipitation and sedimentation of the drug of interest and excipients over time. To assess physical stability, the formulations at tfinal were first filtered through a 300 kDa modified polyethersulfone filter membrane (Nanosep) to remove any precipitate in the solution. The concentration of I-2 in the filtrates was then measured and compared to that at t=0. The purity of I-2 in the unfiltered solution was also evaluated at tfinal, to further confirm chemical stability. This parameter is defined by the area under the signal peak that is attributed to compound I-2 as a percentage of all peaks reported by in the sample by HPLC (% peak area).

[2] = Draize-Ocular Irritation assessment; type: in vivo, Dutch-belted rabbits; details: topical I-2 solution formulations, during PK studies

physical stability of solution [1]: major physical instability
SMILES: Cc1cc(C(=O)Nc2cc(Oc3ccc4nc(NC(=O)CN5CC[C@H](N(C)C)C5)cn4n3)ccc2C)n(C)n1 [Compound I-2]
Draize-Ocular Irritation [2]: no irritation
